Test results published in US20180220653A1, “Methods for Identifying Compounds that Directly Bind to Insect Transient Receptor Potential Channels” (priority 2015, published 2018).
Read-outs that look alike come from different tables or passages of the source.

Key:
[1] = system: American grasshoppers (Schistocerca americana); test: Leg extension assay in American grasshoppers; format: in vivo; details: injection, 10 mM in 100% DMSO, 3 μl per animal; assessed 40-60 minutes post-injection
Procedure: American grasshoppers (Schistocerca americana) were obtained from Dr. Hojun Song (University of Central Florida). Test compounds (10 mM in 100% DMSO), or vehicle (100% DMSO) were applied by injection through the abdominal intersegmental cuticle (3 μl per animal), using Hamilton syringe. The effects of compounds were assessed 40-60 minutes post-injection.

[2] = target: mouse TRPV channel, mTRPV4 (Mus musculus, UniProt Q9EPK8); test: Calcium response in CHO cells expressing mTRPV4; format: cell-based; details: CHO cells transduced with mTRPV4 adenovirus; FIG. 6
Nan = format: binding, Drosophila; details: for displacement of [3H]-afidopyropen from Nan-only sites: Ki not accurately determined, curves did not reach bottom plateaus
[3] = target: T1, insect TRPV channels, Nan and Iav (Drosophila melanogaster, UniProt M9PI57+Q9W3W0); details: for EC50: read-out: half-maximal effective concentrations (EC50), calcium mobilization, CHO cells co-expressing Nan and Iav, FIG. 5
T1 sequence (M9PI57 1-834): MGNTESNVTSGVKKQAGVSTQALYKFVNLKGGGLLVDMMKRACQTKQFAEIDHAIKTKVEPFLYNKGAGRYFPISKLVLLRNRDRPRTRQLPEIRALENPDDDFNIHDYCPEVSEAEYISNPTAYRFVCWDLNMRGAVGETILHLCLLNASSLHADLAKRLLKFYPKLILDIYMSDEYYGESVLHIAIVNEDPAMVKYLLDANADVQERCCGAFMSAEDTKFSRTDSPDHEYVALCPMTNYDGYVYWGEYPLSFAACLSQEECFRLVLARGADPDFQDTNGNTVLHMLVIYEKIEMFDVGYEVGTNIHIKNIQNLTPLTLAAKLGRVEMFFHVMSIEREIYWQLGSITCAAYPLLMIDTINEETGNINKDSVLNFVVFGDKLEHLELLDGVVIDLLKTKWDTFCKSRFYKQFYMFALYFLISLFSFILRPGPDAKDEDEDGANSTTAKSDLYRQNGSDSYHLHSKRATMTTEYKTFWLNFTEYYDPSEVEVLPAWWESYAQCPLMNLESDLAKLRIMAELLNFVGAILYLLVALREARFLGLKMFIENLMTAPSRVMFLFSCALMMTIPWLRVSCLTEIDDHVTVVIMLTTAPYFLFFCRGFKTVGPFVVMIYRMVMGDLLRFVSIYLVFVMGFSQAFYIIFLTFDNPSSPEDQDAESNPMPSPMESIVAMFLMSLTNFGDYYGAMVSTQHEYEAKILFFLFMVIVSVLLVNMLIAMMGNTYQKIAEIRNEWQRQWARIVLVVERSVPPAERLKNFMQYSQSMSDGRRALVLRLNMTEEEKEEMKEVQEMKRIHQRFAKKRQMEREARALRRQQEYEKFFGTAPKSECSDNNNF
T1 sequence (Q9W3W0 1-1123): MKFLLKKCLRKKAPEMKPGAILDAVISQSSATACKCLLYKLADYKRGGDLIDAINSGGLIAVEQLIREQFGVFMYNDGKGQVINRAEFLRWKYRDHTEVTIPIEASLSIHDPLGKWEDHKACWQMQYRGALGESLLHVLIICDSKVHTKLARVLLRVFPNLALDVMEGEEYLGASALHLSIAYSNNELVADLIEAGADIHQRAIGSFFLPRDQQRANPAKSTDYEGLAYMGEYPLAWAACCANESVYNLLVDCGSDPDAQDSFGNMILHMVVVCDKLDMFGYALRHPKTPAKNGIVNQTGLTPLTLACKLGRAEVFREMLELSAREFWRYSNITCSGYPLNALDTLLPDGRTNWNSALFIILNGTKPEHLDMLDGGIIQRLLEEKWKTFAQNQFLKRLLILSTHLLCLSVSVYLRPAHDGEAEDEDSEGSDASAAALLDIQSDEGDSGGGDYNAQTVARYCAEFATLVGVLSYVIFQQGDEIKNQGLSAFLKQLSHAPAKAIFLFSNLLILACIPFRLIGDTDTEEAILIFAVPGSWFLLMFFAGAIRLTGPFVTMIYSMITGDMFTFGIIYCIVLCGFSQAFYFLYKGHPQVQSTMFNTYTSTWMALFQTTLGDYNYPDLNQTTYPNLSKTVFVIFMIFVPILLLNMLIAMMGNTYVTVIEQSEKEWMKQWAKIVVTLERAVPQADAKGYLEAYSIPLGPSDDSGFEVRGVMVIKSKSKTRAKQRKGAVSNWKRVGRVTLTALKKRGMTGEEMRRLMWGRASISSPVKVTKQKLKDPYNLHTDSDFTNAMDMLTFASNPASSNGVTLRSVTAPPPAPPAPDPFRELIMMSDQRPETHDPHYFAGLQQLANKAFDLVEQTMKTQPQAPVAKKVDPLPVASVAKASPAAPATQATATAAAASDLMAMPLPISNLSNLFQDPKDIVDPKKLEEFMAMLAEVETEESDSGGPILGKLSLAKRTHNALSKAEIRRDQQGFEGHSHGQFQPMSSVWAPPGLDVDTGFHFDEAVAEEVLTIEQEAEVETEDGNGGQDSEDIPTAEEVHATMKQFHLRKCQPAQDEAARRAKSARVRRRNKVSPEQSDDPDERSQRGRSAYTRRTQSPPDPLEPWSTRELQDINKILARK

[4] = target: T1, insect TRPV channels, Nan and Iav
[5] = system: Nan and Iav from pea aphid; test: Two-electrode voltage clamp in Xenopus laevis oocytes injected with Nan and Iav mRNA; format: cell-based, Acyrthosiphon pisum; details: 10 uM dPFQ; oocytes with Nan+Iav vs Nan or Iav alone; FIG. 4a
[6] = Solubility observed in competition binding assay; details: at high concentrations, binding buffer
[7] = system: locusts (Locusta migratoria); details: injection, Ausborn et al., 2005; cited from earlier work
[8] = target: T1, insect TRPV channels, Nan and Iav; test: cell-based
[9] = Nan+Iav cells vs parental cells and cells expressing Nan or Iav alone, FIG. 3
[10] = Nan+Iav cells vs parental cells and cells expressing Nan or Iav alone, FIG. 4

Chain of mouse TRPV channel, mTRPV4 (Q9EPK8 whole entry): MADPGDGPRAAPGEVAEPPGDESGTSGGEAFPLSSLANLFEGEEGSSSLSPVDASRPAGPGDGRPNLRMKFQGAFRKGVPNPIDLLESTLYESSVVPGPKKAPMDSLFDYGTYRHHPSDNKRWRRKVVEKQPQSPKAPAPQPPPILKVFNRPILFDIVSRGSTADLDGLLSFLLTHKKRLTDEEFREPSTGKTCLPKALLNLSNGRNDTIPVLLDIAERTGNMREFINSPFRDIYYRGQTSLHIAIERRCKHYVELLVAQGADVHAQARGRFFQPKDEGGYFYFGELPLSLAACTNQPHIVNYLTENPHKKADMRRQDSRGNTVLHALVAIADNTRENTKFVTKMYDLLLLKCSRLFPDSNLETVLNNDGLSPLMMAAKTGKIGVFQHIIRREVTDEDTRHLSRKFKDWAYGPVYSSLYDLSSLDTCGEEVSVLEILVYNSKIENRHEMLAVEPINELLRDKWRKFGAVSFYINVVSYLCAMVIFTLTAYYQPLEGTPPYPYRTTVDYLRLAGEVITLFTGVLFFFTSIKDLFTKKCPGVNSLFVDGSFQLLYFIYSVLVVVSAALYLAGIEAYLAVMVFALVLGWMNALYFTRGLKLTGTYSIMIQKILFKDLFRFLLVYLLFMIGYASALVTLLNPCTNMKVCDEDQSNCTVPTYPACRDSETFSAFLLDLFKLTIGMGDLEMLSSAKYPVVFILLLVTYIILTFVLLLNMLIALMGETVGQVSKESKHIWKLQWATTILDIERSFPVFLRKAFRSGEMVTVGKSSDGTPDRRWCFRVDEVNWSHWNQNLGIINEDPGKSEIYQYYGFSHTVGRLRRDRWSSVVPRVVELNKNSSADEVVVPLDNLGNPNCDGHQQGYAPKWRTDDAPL

SMILES | hind leg extension [1] | calcium response / activation of mTRPV4 [2] | Ki (Nan; Nan-only expressing membranes, FIG. 9B, read-out: Ki, displacement assay) [nM] | calcium mobilization response [3, 9] | EC50 [3] [nM] | membrane depolarization response [4, 10] | inward and outward current responses [5] | displacement of [3H]-afidopyropen from Nan-only sites (Nan) | solubility [6] | calcium mobilization response [3] | membrane depolarization response [4] | hind leg extension [7] | EC50 [8] [nM]
C[C@]1(COC(=O)C2CC2)[C@@H]2C[C@H](O)[C@@]3(C)Oc4cc(-c5cccnc5)oc(=O)c4[C@H](O)[C@@H]3[C@@]2(C)CC[C@@H]1OC(=O)C1CC1 [afidopyropen] | elicited hind leg extension | failed to activate | 3.1 | only in cells co-infected with Nan and Iav viruses | 1 | only in cells co-infected with Nan and Iav viruses |  |  |  |  |  |  | 
O=C1Nc2ccc(C(F)(C(F)(F)F)C(F)(F)F)cc2CN1NCc1cccnc1 [N-deacetylated pyrifluquinazon] |  |  |  | only in cells co-infected with Nan and Iav viruses | 64 | only in cells co-infected with Nan and Iav viruses | evoked both inward and outward current responses only in oocytes expressing both Nan and Iav | clearly displaced | poor solubility |  |  |  | 
CC(C)C[C@H](NC(=O)c1cc2ccccc2s1)C(=O)N1CCN(C(=O)[C@H](CO)NS(=O)(=O)c2ccc(Cl)cc2Cl)CC1 [GSK1016790A, N-((1S)-1-{[4-((2S)-2-{[(2,4-dichlorophenyl)sulfonyl]amino}-3-hydroxypropanoyl)-1-piperazinyl]carbonyl}-3-methylbutyl)-1-benzothiophene-2-carboxamide] |  | evoked strong calcium response |  |  |  |  |  |  |  |  |  |  | 
CC1=NNC(=O)N(/N=C/c2cccnc2)C1 [pymetrozine] | Elicit Characteristic Hind Leg Extension |  |  |  |  |  |  | clearly displaced | poor solubility | only in cells co-infected with Nan and Iav viruses | only in cells co-infected with Nan and Iav viruses | produce characteristic hind leg extension | 51
